Measured values taken from BindingDB's records for PubMed 36966976 (Csir-Indian Institute of Chemical Technology (CSIR-IICT), 2023).

Molecular target: Alpha-synuclein (Homo sapiens, UniProt P37840)

## OCCOC(=C\C=C1N(c2ccccc2)c2cc3ccccc3cc2N1c1ccccc1)/C=C/c1n(-c2ccccc2)c2cc3ccccc3cc2[n+]1-c1ccccc1
  Kd: 3.8 nM
